Measurements: patent US11591323B2, “Muscarinic agonists as non-steroidal and non-opioid analgesics and methods of use thereof” (Barry University, priority 2019, dated 2023)
Like-named read-outs stand apart in the source and are kept apart here.

Key:
Format in all cases: cell-based
M5 muscarinic receptor [1] = target: T1, M5 muscarinic receptor (Homo sapiens, UniProt P08912); assay: accumulation of IPX, M5 CHO cells transfected with G15 (M5Gq+G15); set-up: expressed in transfected cells; host or cells: CHO cells; conditions: for EC50 / E′MAX / τ: Table 8; for Kd: Table 8, read-out: pKA (converted); for RAi: Table 8, relative to carbachol; for Δlog(τ/KA): Table 8, to carbachol
T1 sequence (P08912 1-532): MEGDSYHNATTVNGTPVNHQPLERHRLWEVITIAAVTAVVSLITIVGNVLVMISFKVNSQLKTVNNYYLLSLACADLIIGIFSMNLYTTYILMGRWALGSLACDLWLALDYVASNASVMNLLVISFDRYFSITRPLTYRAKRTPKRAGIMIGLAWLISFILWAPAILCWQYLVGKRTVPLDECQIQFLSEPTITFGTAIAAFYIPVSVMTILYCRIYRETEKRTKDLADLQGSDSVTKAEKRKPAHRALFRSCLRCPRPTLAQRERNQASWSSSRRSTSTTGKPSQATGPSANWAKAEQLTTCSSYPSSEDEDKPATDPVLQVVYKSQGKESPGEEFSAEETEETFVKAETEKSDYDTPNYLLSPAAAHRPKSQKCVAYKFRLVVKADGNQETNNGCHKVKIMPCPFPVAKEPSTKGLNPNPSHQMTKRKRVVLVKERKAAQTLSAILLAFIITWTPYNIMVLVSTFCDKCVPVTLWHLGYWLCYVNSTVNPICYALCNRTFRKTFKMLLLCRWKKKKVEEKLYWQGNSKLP
Experimental: (§1) To determine level of cAMP, cells in suspension were pre-incubated for 1 h with 0.4 μM [^3H]adenine, washed, and incubated for 10 min in the presence of isobutylmethylxanthine and 10 μM forskolin. […] Incubation was ended by addition of 0.2 ml of 2.5 M HCl to the samples. Samples were applied to alumina columns (1.5 g of alumina per column), washed with 2 ml ammonium acetate (pH=7.0) and eluted from columns with 4 ml ammonium acetate and measured by liquid scintillation spectrometry. […] The incubation was stopped by addition of 0.5 ml of chloroform methanol HCl mixture (2:1:0.1). After separation of water and organic phases, 0.6 ml of water phase was applied to Dowex columns (1.5 g of Dowex per column), washed by 20 ml of 60 mM ammonium formate/5 mM sodium borate buffer and eluted from columns with 4 ml of 1M ammonium formate/0.1 formic acid buffer and measured by liquid scintillation spectrometry.
(§2) Measurements of the production of cAMP and inositol phosphates: Levels of second messengers cAMP and inositol phosphates were determined in radiochemical chromatography assays as described previously. To determine level of cAMP, cells in suspension were pre-incubated for 1 h with 0.4 μM [^3H]adenine, washed, and incubated for 10 min in the presence of isobutylmethylxanthine and 10 μM forskolin. […] Incubation was ended by addition of 0.2 ml of 2.5 M HCl to the samples. Samples were applied to alumina columns (1.5 g of alumina per column), washed with 2 ml ammonium acetate (pH=7.0) and eluted from columns with 4 ml ammonium acetate and measured by liquid scintillation spectrometry. […] For this purpose, new CHO cell lines stably expressing promiscuous G15 G-protein and M2 or M4 receptor were generated by transfection with pCMV/hygro vector and hygromycin selection. To determine the rate of formation of inositol phosphates IPX, suspended cells were pre-incubated with 0.1 μM [^3H]myo-inositol for 60 min, washed, and incubated with 10 mM LiCl for 15 min. […] The incubation was stopped by addition of 0.5 ml of chloroform methanol HCl mixture (2:1:0.1). After separation of water and organic phases, 0.6 ml of water phase was applied to Dowex columns (1.5 g of Dowex per column), washed by 20 ml of 60 mM ammonium formate/5 mM sodium borate buffer and eluted from columns with 4 ml of 1M ammonium formate/0.1 formic acid buffer and measured by liquid scintillation spectrometry.
(§3) For bi-phasic response, curves were inhibitory and stimulatory phase were fitted separately. Operational Model of Functional Agonism
(§4) [formula] where y is functional response at concentration of tested compound x, EMAX is maximal response of the system, KA is equilibrium dissociation constant and nH is slope factor. Eq. 5 was fitted to data from functional experiments. Eq. 5 was fitted to data by the two-step procedure described earlier. […] In the second step, Eq. 5 with EMAX fixed to the value determined in the first step was fitted to individual experimental data sets. Relative Intrinsic Activity

[2] = test system: brain cortex (rich in M1); assay: accumulation of IPX in dissipated rat brain cortex; conditions: in words
Experimental: Effects of compounds 6A and 7A were then measured ex vivo in dissipated rat tissues (FIG. 5). Accumulation of IPX was measured in dissipated brain cortex (rich in M1 & M3), submaxillary gland (M1 & M3), and ventral tegmental area (M5). Native tissues express about 10-times less muscarinic receptors than CHO cell lines. Accumulation of cAMP was measured in cerebellum (M2) and striatum (M4).
Rat dissipated tissues: Suspension of dissipated tissues from rat brain cortex, cerebellum, striatum, ventral tegmental area (VTA) and submaxillary glands was prepared as described previously in supplementary methods. Adult 8-weeks old male Wistar rats were scarified by cervical dislocation in accordance with current legislative and guidelines under permission of Czech Ministry of Agriculture 16OZ23113/2017-17214. Tissues were dissected immediately. Submaxillary glands were minced by scissors. Tissues were dispersed by incubation for 15 min at 37° C. in KHB supplemented with trypsin and trituration every 5 min. Large undissipated parts were removed by cell mesh. […]
Measurements of the production of cAMP and inositol phosphates: Levels of second messengers cAMP and inositol phosphates were determined in radiochemical chromatography assays as described previously. […] Samples were applied to alumina columns (1.5 g of alumina per column), washed with 2 ml ammonium acetate (pH=7.0) and eluted from columns with 4 ml ammonium acetate and measured by liquid scintillation spectrometry. […] After separation of water and organic phases, 0.6 ml of water phase was applied to Dowex columns (1.5 g of Dowex per column), washed by 20 ml of 60 mM ammonium formate/5 mM sodium borate buffer and eluted from columns with 4 ml of 1M ammonium formate/0.1 formic acid buffer and measured by liquid scintillation spectrometry.
To exclude the possibility that the observed effects of compounds 6A and 7A are the result of overexpression in the heterologous system, functional response to the compounds was measured ex vivo in dissipated native rat tissues. […] Accumulation of cAMP was measured in M2-rich cerebellum and M4-rich striatum.

M5 muscarinic receptor [3] = target: T1, M5 muscarinic receptor; assay: inhibition of forskolin-stimulated cAMP, M5 CHO cells (M5Gi); set-up: host or cells: CHO cells, stably transfected; conditions: for Emax: CHO; for effect on forskolin-stimulated production of cAMP: M5, non-preferential response, in words; for RAi: Table 8, relative to carbachol; for Δlog(τ/KA): Table 8, to carbachol; for Gi over Gq+G15 bias: at M5 receptors
Experimental: Since activation of phospholipase C (PLC) via M2 and M4 receptors is weak, cells were transferred with G15 G-protein to facilitate coupling.
as §1, §2, §3, §4
Muscarinic receptors are also able to stimulate non-preferential signalling pathways.

[4] = M5Gi (↓cAMP), Table 8, read-out: E′MAX
[5] = M5Gi (↓cAMP), Table 8, read-out: pEC50 (converted)
[6] = M5Gi (↓cAMP), Table 8, read-out: pKA (converted)

Structure (SMILES) | EC50 (M5 muscarinic receptor [1]) [µM] | E′MAX (M5 muscarinic receptor [1]) [fold over basal] | τ (M5 muscarinic receptor [1]) | Kd (M5 muscarinic receptor [1]) [µM] | RAi (M5 muscarinic receptor [1]) | Δlog(τ/KA) (M5 muscarinic receptor [1]) | accumulation of IPX [2] | Emax (M5 muscarinic receptor [3]; [4]) [%] | effect on forskolin-stimulated production of cAMP (M5 muscarinic receptor [3]) | τ (M5 muscarinic receptor [3]; M5Gi (↓cAMP), Table 8) | RAi (M5 muscarinic receptor [3]; M5Gi (↓cAMP)) | Δlog(τ/KA) (M5 muscarinic receptor [3]; M5Gi (↓cAMP)) | EC50 (M5 muscarinic receptor [3]; [5]) [µM] | Kd (M5 muscarinic receptor [3]; [6]) [µM] | Gi over Gq+G15 bias (M5 muscarinic receptor [3]) | EC50 (M5 muscarinic receptor [3]) [µM] | Kd (M5 muscarinic receptor [3]) [µM] | Emax (M5 muscarinic receptor [3]) [%] | E′MAX (M5 muscarinic receptor [3]; M5Gi (↓cAMP), Table 8)
C[N+]1(Cc2cccs2)CC=CCC1.[I-] (stereo not drawn) [Compound 7A, 1-methyl-1-[(thiophen-2-yl)methyl]-1,2,3,6-tetrahydropyridin-1-ium iodide] | 7.94 | 1.28 ± 0.05 | 0.014 ± 0.003 | 2 | 0.0007 ± 0.0002 | 3.17 ± 0.88 | negligible increase in IPX | 34 ± 2 | inhibited cAMP production | 0.59 ± 0.02 | 0.026 ± 0.003 | 1.67 ± 0.18 | 31.6 | 50.1 | ~30 fold | – | – | – | –
O=C1CCCN1CC#CCN1CCCC1 [oxotremorine, reference compound] | – | 16 ± 1 | 2.6 ± 0.3 | – | 4.12 ± 0.26 | −0.62 ± 0.07 | – | – | – | 0.31 ± 0.03 | 6.44 ± 0.67 | −0.79 ± 0.06 | – | – | – | 0.0708 | 0.1 | 22 ± 2 | –
C1=CCN(Cc2cccs2)CC1.Cl [Compound 6A, 1-[(thiophen-2-yl)methyl]-1,2,3,6-tetrahydropyridin-1-ium chloride] | 1.58 | 1.19 ± 0.04 | 0.009 ± 0.003 | 1.58 | 0.0025 ± 0.0008 | 2.60 ± 0.82 | negligible increase in IPX | 22 ± 2 | inhibited cAMP production | 0.31 ± 0.04 | 0.021 ± 0.002 | 1.70 ± 0.21 | 21.9 | 31.6 | about 10 fold | – | – | – | –
C[N+](C)(C)CCOC(N)=O [carbachol, reference compound] | – | 17 ± 2 | 4.0 ± 0.4 | – | – | 0 | profound accumulation of IPX | – | inhibited forskolin-stimulated production of cAMP at nanomolar concentrations | 0.24 ± 0.03 | – | 0 | – | – | – | – | – | – | 18 ± 1 % of inhibition
